Results published in US7342024B2, “4-Oxo-1-3-substituted phenyl-1,4-dihydro-1,8-naphthyridine-3-carboxamide phosphodiesterase-4 inhibitors” (Merck Frost Canada Ltd., priority 2002, dated 2008).
pIC50: −log10 of the molar value.

Biological target: T1, human recombinant phosphodiesterase IVb (met-248) (Homo sapiens, UniProt Q07343)
T1 construct: fused on or other part: GST (glutathione transferase) fused on as a tag
Test: SPA based PDE activity assay
Format: biochemical
Settings: 100 nM cAMP, purified GST fusion protein of PDE IVb (met-248) from baculovirus/Sf-9
Method: Compounds which inhibit the hydrolysis of cAMP to AMP by the type-IV cAMP-specific phosphodiesterases were screened in a 96-well plate format as follows:
In a 96 well-plate at 30° C. was added the test compound (dissolved in 2 μL DMSO), […] of substrate buffer containing [2,8-^3H] adenosine 3′,5′-cyclic phosphate (cAMP, 110 nM to 50 μM), 10 mM MgCl2, 1 mM EDTA, 50 mM Tris, pH 7.5. The reaction was initiated by the addition of […] of human recombinant PDE4 (the amount was controlled so that ˜10% product was formed in 10 min.). The reaction was stopped after 10 min. by the addition of 1 mg of PDE-SPA beads (Amersham Pharmacia Biotech, Inc., Piscataway, N.J.). The product AMP generated was quantified on a Wallac Microbeta® 96-well plate counter (EG&G Wallac Co., Gaithersburg, Md.). The signal in the absence of enzyme was defined as the background. 100% activity was defined as the signal detected in the presence of enzyme and DMSO with the background subtracted. Percentage of inhibition was calculated accordingly. IC50 value was approximated with a non-linear regression fit using the standard 4-parameter/multiple binding sites equation from a ten point titration.
The IC50 values of the Examples disclosed here under were determined with 100 nM cAMP using the purified GST fusion protein of the human recombinant phosphodiesterase IVb (met-248) produced from a baculovirus/Sf-9 expression system.

T1 sequence (Q07343 236-736): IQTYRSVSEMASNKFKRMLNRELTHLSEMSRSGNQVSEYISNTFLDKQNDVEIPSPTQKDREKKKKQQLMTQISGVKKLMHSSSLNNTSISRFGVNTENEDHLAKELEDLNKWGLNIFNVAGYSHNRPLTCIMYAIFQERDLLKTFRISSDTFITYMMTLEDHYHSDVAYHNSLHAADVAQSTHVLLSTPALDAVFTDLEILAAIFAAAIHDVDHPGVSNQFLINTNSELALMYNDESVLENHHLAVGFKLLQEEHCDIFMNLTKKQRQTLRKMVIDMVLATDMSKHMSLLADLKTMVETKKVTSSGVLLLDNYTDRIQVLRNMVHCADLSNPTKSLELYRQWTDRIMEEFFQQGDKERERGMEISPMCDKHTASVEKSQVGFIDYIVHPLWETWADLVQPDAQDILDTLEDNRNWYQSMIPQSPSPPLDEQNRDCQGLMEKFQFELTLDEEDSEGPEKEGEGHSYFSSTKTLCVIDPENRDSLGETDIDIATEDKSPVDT

SMILES | pIC50
O=C(NC1CC1)c1cn(-c2cccc(-c3ccc(C4CC4C(=O)O)c(Cl)c3)c2)c2ncccc2c1=O (centres unmarked) [Example 17, 2-{3-Chloro-3′-[3-[(cyclopropylamino)carbonyl]-4-oxo-1,8-naphthyridin-1(4H)-yl]-1,1′-biphenyl-4-yl}cyclopropanecarboxylic acid] | 10.00
O=C(NCC1CC1)c1cn(-c2cccc(-c3ccc(C4CC4C(=O)O)cc3)c2)c2ncccc2c1=O (centres unmarked) [Example 26, 2-{3′-[3-{[(Cyclopropylmethyl)amino]carbonyl}4-oxo-1,8-naphthyridin-1(4H)-yl]-1,1′-biphenyl-4-yl}cyclopropanecarboxylic acid] | 9.70
O=C(NCC(F)(F)F)c1cn(-c2cccc(-c3ccc([C@@H]4C[C@H]4C(=O)O)cc3)c2)c2ncccc2c1=O (single isomer, unassigned; (+)) [24-(+)-isomer, (+)-(trans)-2-{3′-[4-oxo-3-{[(2,2,2-trifluoroethyl)amino]carbonyl}-1,8-naphthyridin-1(4H)-yl]biphenyl-4-yl}cyclopropanecarboxylic acid] | 9.40
O=C(NC1CC1)c1cn(-c2cccc(-c3cccc(C4CC4C(=O)O)c3)c2)c2ncccc2c1=O (centres unmarked) [Example 2] | 9.70
CC(C)(CC(=O)O)c1ccc(-c2cccc(-n3cc(C(=O)NC4CC4)c(=O)c4cccnc43)c2)cc1 [Example 5, 3-{3′-[3-[(Cyclopropylamino)carbonyl]4-oxo-1,8-naphthyridin-1(4H)-yl]-1,1′-biphenyl-4-yl}-3-methylbutanoic acid] | 9.22
O=C(NC1CC1)c1cn(-c2cccc(-c3ccc(C4CC4C(=O)O)c(F)c3)c2)c2ncccc2c1=O (single isomer, unassigned; isomer 2) [12-(−)-isomer, 2-{3′-[3-[(Cyclopropylamino)carbonyl]-4-oxo-1,8-naphthyridin-1(4H)-yl]-3-fluoro-1,1′-biphenyl-4-yl}cyclopropanecarboxylic acid] | 9.40
O=C(NC1CC1)c1cn(-c2cccc(-c3ccc([C@H]4C[C@H]4C(=O)O)cc3)c2)c2ncccc2c1=O (single isomer, unassigned; isomer 2) [8-(−)-isomer, 2-(cis)-{3′-[3-[(Cyclopropylamino)carbonyl]-4-oxo-1,8-naphthyridin-1(4H)-yl]-1,1′-biphenyl-4-yl}cyclopropanecarboxylic acid] | 9.15
O=C(NCC(F)(F)F)c1cn(-c2cccc(-c3ccc(C4CC4C(=O)O)c(F)c3)c2)c2ncccc2c1=O (single isomer, unassigned; (+)) [Example 29, (+)-(trans)-2-{3-fluoro-3′-[4-oxo-3-{[(2,2,2-trifluoroethyl)amino]carbonyl}-1,8-naphthyridin-1(4H)-yl]biphenyl-4-yl}cyclopropanecarboxylic acid] | 9.52
